Tests used:
Rattus norvegicus [1] = experiment: Oral antiallergic activity in rat passive foot anaphylaxis (PFA) assay as percent change in volume of foot edema at a dose 31.6 mg/kg compared to -50% of aminophylline at 100 mg/kg; format: functional
Rattus norvegicus [2] = experiment: Oral antiallergic activity in rat passive foot anaphylaxis (PFA) assay as percent change in volume of foot edema at a dose 31.6 mg/kg compared to -78% of aminophylline at 100 mg/kg; format: functional
Rattus norvegicus [3] = experiment: Oral antiallergic activity in rat passive foot anaphylaxis (PFA) assay as percent change in volume of foot edema at a dose 31.6 mg/kg compared to -63% of aminophylline at 100 mg/kg; format: functional
Rattus norvegicus [4] = experiment: Oral antiallergic activity in rat passive foot anaphylaxis (PFA) assay as percent change in volume of foot edema at a dose 31.6 mg/kg compared to -65% of aminophylline at 100 mg/kg; format: functional
Rattus norvegicus [5] = experiment: Oral antiallergic activity in rat passive foot anaphylaxis (PFA) assay as percent change in volume of foot edema at a dose 31.6 mg/kg compared to -74% of aminophylline at 100 mg/kg; format: functional
Rattus norvegicus [6] = experiment: Oral antiallergic activity in rat passive foot anaphylaxis (PFA) assay as percent change in volume of foot edema at a dose 31.6 mg/kg compared to -66% of aminophylline at 100 mg/kg; format: functional
Rattus norvegicus [7] = experiment: Oral antiallergic activity in rat passive foot anaphylaxis (PFA) assay as percent change in volume of foot edema at a dose 31.6 mg/kg compared to -76% of aminophylline at 100 mg/kg; format: functional
Rattus norvegicus [8] = experiment: Oral antiallergic activity in rat passive foot anaphylaxis (PFA) assay as percent change in volume of foot edema at a dose 31.6 mg/kg compared to -61% of aminophylline at 100 mg/kg; format: functional
Rattus norvegicus [9] = experiment: Oral antiallergic activity in rat passive foot anaphylaxis (PFA) assay as percent change in volume of foot edema at a dose 31.6 mg/kg compared to -71% of aminophylline at 100 mg/kg; format: functional
Rattus norvegicus [10] = experiment: Oral antiallergic activity in rat passive foot anaphylaxis (PFA) assay as percent change in volume of foot edema at a dose 31.6 mg/kg compared to -69% of aminophylline at 100 mg/kg; format: functional
Rattus norvegicus [11] = experiment: Oral antiallergic activity in rat passive foot anaphylaxis (PFA) assay as percent change in volume of foot edema at a dose 31.6 mg/kg compared to -81% of aminophylline at 100 mg/kg; format: functional
Rattus norvegicus [12] = experiment: Oral antiallergic activity in rat passive foot anaphylaxis (PFA) assay as percent change in volume of foot edema at a dose 31.6 mg/kg compared to -68% of aminophylline at 100 mg/kg; format: functional
Rattus norvegicus [13] = experiment: Oral antiallergic activity in rat passive foot anaphylaxis (PFA) assay as percent change in volume of foot edema at a dose 31.6 mg/kg compared to -79% of aminophylline at 100 mg/kg; format: functional
Rattus norvegicus [14] = experiment: Oral antiallergic activity in rat passive foot anaphylaxis (PFA) assay as percent change in volume of foot edema at a dose 31.6 mg/kg compared to -80% of aminophylline at 100 mg/kg; format: functional
Rattus norvegicus [15] = experiment: Oral antiallergic activity in rat passive foot anaphylaxis (PFA) assay as percent change in volume of foot edema at a dose 31.6 mg/kg compared to -73% of aminophylline at 100 mg/kg; format: functional
Rattus norvegicus [16] = experiment: Oral antiallergic activity in rat passive foot anaphylaxis (PFA) assay as percent change in volume of foot edema at a dose 31.6 mg/kg compared to -77% of aminophylline at 100 mg/kg; format: functional
Rattus norvegicus [17] = experiment: Oral antiallergic activity in rat passive foot anaphylaxis (PFA) assay as percent change in volume of foot edema at a dose 31.6 mg/kg compared to -58% of aminophylline at 100 mg/kg; format: functional
Rattus norvegicus [18] = experiment: Oral antiallergic activity in rat passive foot anaphylaxis (PFA) assay as percent change in volume of foot edema at a dose 31.6 mg/kg compared to -60% of aminophylline at 100 mg/kg; format: functional
Rattus norvegicus [19] = experiment: Oral antiallergic activity in rat passive foot anaphylaxis (PFA) assay as percent change in volume of foot edema at a dose 10 mg/kg compared to -69% of aminophylline at 100 mg/kg; format: functional
Rattus norvegicus [20] = experiment: Oral antiallergic activity in rat passive foot anaphylaxis (PFA) assay as percent change in volume of foot edema at a dose 31.6 mg/kg compared to -64% of aminophylline at 100 mg/kg; format: functional
Rattus norvegicus [21] = experiment: Oral antiallergic activity in rat passive foot anaphylaxis (PFA) assay as percent change in volume of foot edema at a dose 10 mg/kg compared to -62% of aminophylline at 100 mg/kg; format: functional
Rattus norvegicus [22] = experiment: Oral antiallergic activity in rat passive foot anaphylaxis (PFA) assay as percent change in volume of foot edema at a dose 31.6 mg/kg compared to -62% of aminophylline at 100 mg/kg; format: functional
Rattus norvegicus [23] = experiment: Oral antiallergic activity in rat passive foot anaphylaxis (PFA) assay as percent change in volume of foot edema at a dose 31.6 mg/kg compared to -90% of aminophylline at 100 mg/kg; format: functional
Rattus norvegicus [24] = experiment: Oral antiallergic activity in rat passive foot anaphylaxis (PFA) assay as percent change in volume of foot edema at a dose 3.16 mg/kg compared to -84% of aminophylline at 100 mg/kg
Rattus norvegicus [25] = experiment: Oral antiallergic activity in rat passive foot anaphylaxis (PFA) assay as percent change in volume of foot edema at a dose 10 mg/kg compared to -76% of aminophylline at 100 mg/kg; format: functional
Cavia porcellus [26] = experiment: Oral antiallergic activity in the Guinea Pig Anaphylaxis (GPA) at the dose of 10 mg/kg; 4 guinea pigs were challenged with the antigen
Rattus norvegicus [27] = experiment: Oral antiallergic activity in rat passive foot anaphylaxis (PFA) assay as percent change in volume of foot edema at a dose 31.6 mg/kg compared to -67% of aminophylline at 100 mg/kg; format: functional
Rattus norvegicus [28] = experiment: Oral antiallergic activity in rat passive foot anaphylaxis (PFA) assay as percent change in volume of foot edema at a dose 10 mg/kg compared to -77% of aminophylline at 100 mg/kg; format: functional
Cavia porcellus [29] = experiment: Oral antiallergic activity in the Guinea Pig Anaphylaxis (GPA) at the dose of 31.6 mg/kg; 4 guinea pigs were challenged with the antigen
Cavia porcellus [30] = experiment: Oral antiallergic activity in the Guinea Pig Anaphylaxis (GPA) at the dose of 31.6 mg/kg; 6 guinea pigs were challenged with the antigen; format: functional
Cavia porcellus [31] = experiment: Oral antiallergic activity in the Guinea Pig Anaphylaxis (GPA) at the dose of 200 mg/kg; 3 guinea pigs were challenged with the antigen; format: functional

SMILES: CN(CCNC(=O)N1CCN(c2ccccc2)CC1)Cc1ccccc1
- Change (Rattus norvegicus [1]): -35%

SMILES: CCOC(=O)c1ccc(N2CCN(C(=O)NCCN(C)C)CC2)cc1
- Change (Rattus norvegicus [2]): -5%

SMILES: CN(CCNC(=O)N1CCN(c2ccccc2)CC1)c1ccccc1
- Change (Rattus norvegicus [3]): -41%

SMILES: CN(C)CCNC(=O)N1CCN(c2ccc(Cl)c(Cl)c2)CC1
- Change (Rattus norvegicus [1]): -17%

SMILES: CN(C)CCN(C)C(=O)N1CCN(c2ccccc2)CC1
- Change (Rattus norvegicus [4]): -38%

SMILES: O=C(NCCN1CCOCC1)N1CCN(c2ccccc2)CC1
- Change (Rattus norvegicus [5]): 10%

SMILES: CN(C)CCNC(=O)N1CCN(C(c2ccccc2)c2ccccc2)CC1
- Change (Rattus norvegicus [6]): -30%

SMILES: O=C(NCCN1CCCCCC1)N1CCN(c2ccccc2)CC1
- Change (Rattus norvegicus [7]): -47%

SMILES: CN(C)CCNC(=O)N1CCN(c2ccc(Br)cc2)CC1
- Change (Rattus norvegicus [8]): -31%

SMILES: CN(C)CCNC(=O)N1CCN(C(=O)c2ccccc2)CC1
- Change (Rattus norvegicus [9]): -4%

SMILES: O=C(NCCCN1CCOCC1)N1CCN(c2ccccc2)CC1
- Change (Rattus norvegicus [10]): -28%

SMILES: CCN1CCCC(NC(=O)N2CCN(c3ccccc3)CC2)C1 (configuration not stated)
- Change (Rattus norvegicus [11]): -58%

SMILES: O=C(NCCN1CCCC1)N1CCN(c2ccccc2)CC1
- Change (Rattus norvegicus [12]): -45%

SMILES: CN(C)CCNC(=O)N(C)CCN(C)c1ccccc1
- Change (Rattus norvegicus [13]): -23%

SMILES: O=C(N1CCN(c2ccccc2)CC1)N1CCN(c2ccccc2)CC1
- Change (Rattus norvegicus [10]): -10%

SMILES: COc1ccc(N2CCN(C(=O)NCCN(C)C)CC2)cc1OC
- Change (Rattus norvegicus [3]): -16%

SMILES: CN(C)CCNC(=O)N1CCN(c2ccc(C#N)cc2)CC1
- Change (Rattus norvegicus [14]): -31%

SMILES: CN1CCN(C(=O)N2CCN(c3ccccc3)CC2)CC1
- Change (Rattus norvegicus [12]): -7%

SMILES: CN(C)CCNC(=O)N1CCN(Cc2ccccc2)CC1
- Change (Rattus norvegicus [15]): -10%

SMILES: CC(=O)Nc1ccc(N2CCN(C(=O)NCCN(C)C)CC2)cc1
- Change (Rattus norvegicus [5]): 5%

SMILES: CN(C)CCNC(=O)N1CCN(c2ccc(N(C)C)cc2)CC1
- Change (Rattus norvegicus [16]): -29%

SMILES: CN(C)CCNC(=O)N1CCN(c2ccc([N+](=O)[O-])cc2)CC1
- Change (Rattus norvegicus [17]): -26%

SMILES: CCN(CC)CCNC(=O)N1CCN(c2ccccc2)CC1
- Change (Rattus norvegicus [18]): -47%

SMILES: CN(C)CCNC(=O)N1CCN(c2cccc(C(F)(F)F)c2)CC1
- Change (Rattus norvegicus [8]): -18%

SMILES: CN(C)CCNC(=O)N1CCN(c2ccc(N)cc2)CC1
- Change (Rattus norvegicus [15]): -22%

SMILES: CN(C)CCNC(=O)N1CCN(c2ccccc2F)CC1
- Change (Rattus norvegicus [12]): -37%

SMILES: CN(C)CCNC(=O)N1CCN(c2ccccn2)CC1
- Change (Rattus norvegicus [19]): -13%
- Change (Rattus norvegicus [4]): -54%

SMILES: CN(C)CCNC(=O)N1CCN(c2cccc(F)c2)CC1
- Change (Rattus norvegicus [20]): -31%

SMILES: O=C(NCCN1CCCCC1)N1CCN(c2ccccc2)CC1
- Change (Rattus norvegicus [12]): -49%

SMILES: O=C(NCCc1ccccn1)N1CCN(c2ccccc2)CC1
- Change (Rattus norvegicus [5]): -3%

SMILES: COc1ccccc1N1CCN(C(=O)NCCN(C)C)CC1
- Change (Rattus norvegicus [5]): -21%

SMILES: NC(=O)N1CCN(c2ccccc2)CC1
- Change (Rattus norvegicus [5]): 10%

SMILES: COc1cccc(N2CCN(C(=O)NCCN(C)C)CC2)c1
- Change (Rattus norvegicus [4]): -67%
- Change (Rattus norvegicus [21]): -36%

SMILES: CN1CCN(CCCNC(=O)N2CCN(c3ccccc3)CC2)CC1
- Change (Rattus norvegicus [11]): -23%

SMILES: CN1CCN(CCNC(=O)N2CCN(c3ccccc3)CC2)CC1
- Change (Rattus norvegicus [3]): -7%

SMILES: COc1cc(N2CCN(C(=O)NCCN(C)C)CC2)cc(OC)c1OC
- Change (Rattus norvegicus [22]): 9%

SMILES: CC(=O)c1ccc(N2CCN(C(=O)NCCN(C)C)CC2)cc1
- Change (Rattus norvegicus [9]): -25%

SMILES: CN(C)CCNC(=O)N1CCN(c2ccccc2Cl)CC1
- Change (Rattus norvegicus [19]): -16%
- Change (Rattus norvegicus [4]): -53%

SMILES: CN(C)CCNC(=O)N1CCN(c2ccccc2)CC1
- Change (Rattus norvegicus [19]): -22%
- Change (Rattus norvegicus [23]): -68%

SMILES: CN(C)C(=O)N1CCN(c2ccccc2)CC1
- Change (Rattus norvegicus [9]): -24%

SMILES: CN(C)CCNC(=O)N1CCN(c2ccc(C(N)=O)cc2)CC1
- Change (Rattus norvegicus [14]): 0%

SMILES: CN(C)CCNC(=O)N1CCN(c2ccc(F)cc2)CC1
- Change (Rattus norvegicus [24]): -35%
- Change (Rattus norvegicus [25]): -63%
- No. of guinea pigs protected (Cavia porcellus [26]): 1
- Change (Rattus norvegicus [27]): -87%

SMILES: CN(C)CCNC(=O)N1CCN(c2cccc(Cl)c2)CC1
- Change (Rattus norvegicus [28]): -32%
- Change (Rattus norvegicus [27]): -78%

SMILES: COc1ccc(N2CCN(C(=O)NCCN(C)C)CC2)cc1
- Change (Rattus norvegicus [19]): -29%
- Change (Rattus norvegicus [4]): -49%

SMILES: Cc1ccc(N2CCN(C(=O)NCCN(C)C)CC2)cc1
- Change (Rattus norvegicus [4]): -46%

SMILES: CN(C)CCCNC(=O)N1CCN(c2ccccc2)CC1
- Change (Rattus norvegicus [5]): -13%

SMILES: CN(C)CCNC(=O)N1CCN(c2ccc(Cl)cc2)CC1
- Change (Rattus norvegicus [22]): 27%
- Change (Rattus norvegicus [4]): -61%
- No. of guinea pigs protected (Cavia porcellus [29]): 0
- Change (Rattus norvegicus [21]): -48%

SMILES: Cn1c(=O)c2[nH]cnc2n(C)c1=O.Cn1c(=O)c2[nH]cnc2n(C)c1=O.NCCN [AMINOPHYLLINE]
- No. of guinea pigs protected (Cavia porcellus [30]): 4

SMILES: CCN(CC)C(=O)N1CCN(C)CC1 [DIETHYLCARBAMAZINE]
- No. of guinea pigs protected (Cavia porcellus [31]): 0

SMILES: CN(C)CCOC(c1ccccc1)c1ccccc1 [DIPHENHYDRAMINE]
- No. of guinea pigs protected (Cavia porcellus [29]): 1

— ChEMBL document CHEMBL1124853, “Synthesis and antiallergy activity of N-[2-(dimethylamino)ethyl]-4-aryl-1-piperazinecarboxamide derivatives” (1990)
